Test results from PMC9959553, “Promising Antifungal Molecules against Mucormycosis Agents Identified from Pandemic Response Box®: In Vitro and In Silico Analyses” (Journal of Fungi, 2023).
Where “and” joins values, the source holds several entries; their conditions need not be identical. Equal values may be shown once.

Tests used:
S. brasiliensis = test system: S. brasiliensis; set-up: method as in PMID 36294569; settings: cited from earlier work
R. oryzae UCP1295 = experiment: Antifungal drug synergy assay, checkerboard method (FICI); assay type: cell-based, Rhizopus oryzae; settings: Rhizopus arrhizus, UCP1295, 48 h; drug alone; read-out: MIC50 Alone
Procedure: Synergistic interactions were evaluated using the checkerboard method according to EUCAST guidelines (EUCAST 2008). R. oryzae conidia (2 × 10^5/mL) were grown in 96-well plates containing supplemented RPMI in the presence of the following selected compounds: […] An inhibition of at least 50% was defined as the cut-off for minimum inhibitory concentration (MIC). Interactions were determined by the fractional inhibitory concentration index (FICI), which was calculated using the following formula: (MIC combined/MIC drug A alone) + (MIC combined/MIC drug B alone). […] The Bliss independence model calculation was performed according to […] colleagues and Zhao and colleagues. The following formula was used to assess drug interaction: […] The results were classified as follows: synergistic effect when Eobs > Eexp; indifference when Eobs = Eexp; antagonistic effect when Eobs < Eexp.

S. schenckii = test system: S. schenckii; set-up: method as in PMID 36294569; settings: cited from earlier work
Cryptococcus species = settings: cited from earlier work
C. auris = settings: cited from earlier work
R. oryzae cells = experiment: Analysis of fungal cell alterations with fluorescent staining; assay type: cell-based, Rhizopus oryzae; settings: ½× MIC50, 48 h
Procedure: Alterations of R. oryzae cells caused by alexidine, MMV1580844, MMV642550 and MMV019724 were analyzed using fluorescent staining. Chitin, nucleic acid, oxidative stress, mitochondrial membrane potential and neutral lipid content were evaluated using calcofluor white (Sigma-Aldrich, MO, USA), Sytox Blue (ThermoFisher, Waltham, MA, USA), 2′,7′–dichlorofluorescein diacetate (DCFH-DA) (Sigma-Aldrich, MO, USA), JC-1 probe (ThermoFisher, Waltham, MA, USA) and Nile Red (Sigma-Aldrich, MO, USA), respectively. […] Cells were stained with 25 μg/mL of calcofluor white, 20 μM of Sytox Blue, 50 μg/mL of DCFH-DA, 10 μg/mL of JC-1 or 20 μg/mL of Nile Red, all of them for 1 h at 37 °C in the dark. Samples were washed three times to remove residual dye and suspended in PBS. Fluorescence intensity was measured using the SpectraMax 340 microplate reader (Molecular Devices, San José, CA, USA) under the following conditions: calcofluor white at 350 nm (excitation) and 432 nm (emission); Sytox Blue at 444 nm (excitation) and 480 nm (emission); DCFH-DA at 492 nm (excitation) and 517 nm (emission); JC-1 at 475 nm (excitation) and 529 nm (green fluorescence) or 590 nm (red fluorescence) for the calculation of the red/green fluorescence intensity; and Nile Red at 550 nm (excitation) and 635 nm (emission).

A549 cell line = test system: A549 cell line; set-up: method as in PMID 32560115; settings: cited from earlier work
[1] = test system: R. microsporus preformed biofilm; experiment: Preformed biofilm assay; assay type: cell-based, Rhizopus microsporus; settings: for Selectivity Index (SI), Preformed Biofilm: R. microsporus, based on biofilm viability parameter
Procedure: (§1) For the preformed biofilm assay, cells were cultured as described above in the absence of the compounds. […] An additional incubation of 24 h at 37 °C was performed to evaluate the anti-biofilm activity. Evaluation of both biofilm formation and preformed biofilms was performed using three parameters as previously described. Crystal violet, safranin and XTT assays were used to analyze the overall biomass, extracellular matrix and metabolic activity, respectively.

[2] = test system: R. oryzae preformed biofilm; experiment: Preformed biofilm assay; assay type: cell-based, Rhizopus oryzae; settings: for Selectivity Index (SI), Preformed Biofilm: R. oryzae, based on biofilm viability parameter
Procedure: as §1

[3] = test system: Staphylococcus aureus, Balamuthia mandrillaris, C. albicans, C. glabrata and C. auris; set-up: method as in PMID 23375226, PMID 24568657, PMID 32560115, PMID 22347365; settings: for all of the listed species; cited from earlier work
R. stolonifer biofilm = experiment: Biofilm formation assay; assay type: cell-based, Rhizopus stolonifer
Procedure: (§2) Biofilm formation assay was performed according to Rollin-Pinheiro and colleagues. Biofilms were grown on the surface of sterile polystyrene microplates (96-well). Briefly, serial dilutions of selected compounds were prepared in RPMI 1640 medium (8–¼× MIC) and deposited in 100 µL aliquots in microplate wells. Subsequently, 100 µL containing 10^5 Rhizopus conidia in RPMI 1640 medium was added to each well and incubated for 48 h at 37 °C.
as §1

R. oryzae biofilm = experiment: Biofilm formation assay; assay type: cell-based, Rhizopus oryzae; settings: at MIC
Procedure: as §2, §1

A549 cells = test system: A549 cells; set-up: method as in PMID 30381356; settings: cited from earlier work
HUVEC = test system: HUVEC; set-up: method as in PMID 30381356; settings: cited from earlier work
[4] = test system: R. oryzae, R. microsporus and R. stolonifer biofilm formation; experiment: Biofilm formation assay, stated over the three species; assay type: cell-based, Rhizopus species
Procedure: as §2, §1

R. microsporus biofilm = experiment: Biofilm formation assay; assay type: cell-based, Rhizopus microsporus; settings: at MIC
Procedure: as §2, §1

[5] = preformed biofilm, 24 h treatment

Oc1c(C(Nc2nc3ccccc3s2)c2ccc(OC(F)F)cc2)ccc2cccnc12 (centres unmarked) [MMV019724]
concentration that inhibits 50% (S. brasiliensis): 0.25 µM
MIC (R. oryzae UCP1295): 0.63 µM
concentration that inhibits 50% (S. schenckii): 1 µM
concentration able to inhibit 90% of growth (Cryptococcus species): 5 µM
concentration able to inhibit 90% of growth (C. auris): 2.5 µM
chitin content (calcofluor white) (R. oryzae cells): lower levels
mitochondrial membrane potential (JC-1) (R. oryzae cells): mitochondrial alterations
neutral lipids (Nile Red) (R. oryzae cells): lower levels
IC50 (A549 cell line): 6.2 µM
Selectivity Index (SI), Preformed Biofilm [1]: >40
Selectivity Index (SI), Preformed Biofilm [2]: >10

CCc1nc(N)nc(N)c1C#CC(C)c1cc(OC)cc(-c2ccncc2)c1 (centres unmarked) [MMV1580844]
MIC [3]: lower than 100 nM
MIC (R. oryzae UCP1295): 0.08 µM
mitochondrial membrane potential (JC-1) (R. oryzae cells): depolarization of mitochondrial membranes
oxidative stress, ROS (DCFH-DA) (R. oryzae cells): induced oxidative stress
IC50 (A549 cell line): > 10 µM
Selectivity Index (SI), Preformed Biofilm [1]: >156.3

CCCCC(CC)CNC(=N)NC(=N)NCCCCCCNC(=N)NC(=N)NCC(CC)CCCC (centres unmarked) [MMV396785, Alexidine, reference compound]
concentration giving reduction in biofilm parameters (R. stolonifer biofilm): ≥ 2 × MIC
MIC (R. oryzae UCP1295): 1.25 µM
biofilm biomass, extracellular matrix and viability decreased to (R. oryzae biofilm): 25%
concentration that damaged cells (A549 cells): 14.7 µg/mL and 28.89 µM
concentration that damaged cells (HUVEC): 14.7 µg/mL and 28.89 µM
inhibition of biofilm formation (total biomass, matrix and viability) [4]: ~100%
DNA content (Sytox blue) (R. oryzae cells): reduction
chitin content (calcofluor white) (R. oryzae cells): reduction
mitochondrial membrane potential (JC-1) (R. oryzae cells): did not affect
neutral lipids (Nile Red) (R. oryzae cells): reduction
Selectivity Index (SI), Preformed Biofilm ([1]; listed as Alexidina MMV396785): >20
concentration giving significant decrease in biofilm parameters [1, 5]: 2 × MIC
Selectivity Index (SI), Preformed Biofilm ([2]; listed as Alexidina MMV396785): >20
concentration giving significant decrease in biofilm parameters [2, 5]: 2 × MIC
biofilm biomass, extracellular matrix and viability decreased to (R. microsporus biofilm): 25%
